Several values for one entry are separate records, joined by “and”; a condition that tells them apart may be missing. Equal entries are not always repeated.
System: cAMP levels in FRT cells
Assay: Tropix assay for measurement of cAMP in FRT cells
Format: cell-based, rat
Settings: n=4; for cAMP generated, average % of cAMP produced by 20 μM of forskolin: 15 minutes incubation
Description: In the following example, the effect on cAMP levels by three structurally similar compounds from Table 1 were determined using the cAMP levels from 20 μM forskolin as the normalized reference measure.
The level of cAMP in FRT cells following 0.5 μM forskolin or test compound application was determined using a commercially available chemiluminiscent immunoassay system for mammalian cells called Tropix® (Applied Biosystems, Bedford, Mass.). Briefly, FRT cells were incubated for 15 minutes with a test compound in the presence and absence of 0.5 μM forskolin. The compounds were aspirated and the cells were then lysed and transferred along with the lysis buffer to a 96-well Tropix® ELISA plate. A cAMP-Alk Phos conjugate is then added to the assay plate, followed by the addition of cAMP anti-body. After several wash and aspiration steps, Sapphire blue II solution is added and the […], and the cAMP concentrations were determined using a cAMP standard curve that was present in each plate.

[1] = compound in the presence of 0.5 μM forskolin, FRT cells

| SMILES | cAMP generated, average % of cAMP produced by 20 μM of forskolin (compound alone, FRT cells) [%] | cAMP generated, average % of cAMP produced by 20 μM of forskolin [1] [%] | change of cAMP compared with the DMSO control (compound alone) | change of cAMP compared with the 0.5 μM forskolin control (compound in the presence of 0.5 μM forskolin) | cAMP of the 0.5 μM forskolin control, % of 20 μM forskolin (0.5 μM forskolin alone, FRT cells) |
| --- | --- | --- | --- | --- | --- |
| COc1ccc(C2(CNC(=O)c3cc4ccccc4o3)CCCC2)cc1OC [Compound 7, N-((1-(3,4-dimethoxyphenyl)-cyclopentyl)methyl)benzofuran-2-carboxamide] | 40.3±3.5 | 92.3±2.7 | – | – | – |
| COc1ccc(C(C)(C)CNC(=O)c2cc3ccccc3o2)cc1OC [Compound 34, N-(2-(3,4-dimethoxyphenyl)-2-methylpropyl)benzofuran-2-carboxamide] | 24.4±1.1 | 61.5±1.8 | not a significant increase | significant increase | – |
| C=C[C@@]1(C)CC(=O)[C@]2(O)[C@@]3(C)[C@@H](O)CCC(C)(C)[C@@H]3[C@H](O)[C@H](OC(C)=O)[C@@]2(C)O1 [forskolin, reference compound] | – | – | – | – | 45.9±3.0% and 32.2±3.2% |

From patent publication US7598412B2, “Modulators of ATP-binding cassette transporters” (Vertex Pharmaceuticals Incorporated, priority 2003, dated 2009)
